For one experiment, the system named is M3D-LTB4R2/ICL3. Nature of the experiment: NanoBiT-G-protein dissociation assay, M3D-LTB4R2/ICL3. To be noted: 10 μM CNO; parental HEK293 cells. The class given is cell-based, human. How it is done: (§1) Plasmid transfection was performed in a 6-well plate with a mixture of 100 ng Gα-Lg-encoding plasmid, 500 ng Sm-Gβ-encoding plasmid, 500 ng untagged Gγ2-encoding plasmid, 200 ng GPCR-encoding plasmid with or without 100 ng RIC8-encoding plasmid (per well, hereafter). Unless otherwise stated, the combination of following plasmid mixtures was used: Gαs-Lg, Sm-Gβ1, Gγ2 and RIC8B for NanoBiT-Gs; Gαi1-Lg, Sm-Gβ5 and Gγ2 for NanoBiT-Gi1; Gαi2-Lg, Sm-Gβ3 and Gγ2 for NanoBiT-Gi2; Gαi3-Lg, Sm-Gβ3 and Gγ2 for NanoBiT-Gi3; Gαo-Lg, Sm-Gβ1 and Gγ2 for NanoBiT-Go; Gαq-Lg, Sm-Gβ1, Gγ2 and RIC8A for NanoBiT-Gq; Gα12-Lg, Sm-Gβ1, Gγ2 and RIC8A for NanoBiT-G12; Gα13-Lg, Sm-Gβ1, Gγ2 and RIC8A for NanoBiT-G13. After 1-day culture, the transfected cells were harvested with 1 mL of 0.53 mM EDTA-containing Dulbecco's PBS (D-PBS), followed by addition of 2 mL the HEPES-containing HBSS. The cells were pelleted by centrifugation at 190 g for 5 min and resuspended in 2 mL of the 0.01% BSA- and 5 mM HEPES (pH 7.4)-containing HBSS (assay buffer). […] After 2-h incubation with coelenterazine at room temperature, background luminescent signals were measured using a luminescent microplate reader (SpectraMax L, Molecular Devices). […] Luminescent signals were measured 3-5 min after ligand addition and divided by the initial count. […]

Experiment [1] concerns the target T1, M3D-GPR132/ICL3 (Homo sapiens, UniProt P20309, A239G/DEL260-297/DEL301-447/DEL453-484/K449L/K485Q/T451A/Y149C).
T1 construct: expressed in transfected cells; host or cells: parental HEK293 (NanoBiT-G-protein assay); ΔGq HEK293 (TGFα shedding assay)
T1 sequence (P20309 with tags, fused parts or gaps Y149C/A239G/DEL260-297/DEL301-447/K449L/T451A/DEL453-484/K485Q): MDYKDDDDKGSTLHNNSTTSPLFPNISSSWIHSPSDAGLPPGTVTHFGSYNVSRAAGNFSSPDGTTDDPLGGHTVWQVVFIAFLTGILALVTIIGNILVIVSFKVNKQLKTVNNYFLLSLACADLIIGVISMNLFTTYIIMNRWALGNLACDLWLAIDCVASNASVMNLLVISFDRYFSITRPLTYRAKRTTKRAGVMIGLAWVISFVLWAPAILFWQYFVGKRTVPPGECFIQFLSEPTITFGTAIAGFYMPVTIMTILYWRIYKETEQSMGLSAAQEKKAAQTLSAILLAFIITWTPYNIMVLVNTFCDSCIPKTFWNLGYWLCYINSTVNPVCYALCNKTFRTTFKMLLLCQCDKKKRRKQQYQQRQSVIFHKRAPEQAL
Nature of the experiment: TGFα shedding assay in ΔGq HEK293 cells, M3D-GPR132/ICL3. The class given is cell-based. To be noted: 10 μM CNO. How it is done: (§2) The TGFα shedding assay was performed as described previously (Inoue et al., 2012) with minor modifications. Plasmid transfection was performed in a 6-well plate with a mixture of 500 ng AP-TGFα-encoding plasmid, 200 ng GPCR-encoding plasmid with or without 100 ng Gα-encoding plasmid (per well, hereafter). After 1-day culture, the transfected cells were harvested by trypsinization, pelleted by centrifugation at 190 g for 5 min and washed once with Hank's Balanced Salt Solution (HBSS) containing 5 mM HEPES (pH 7.4). After centrifugation, the cells were resuspended in 6 ml of the HEPES-containing HBSS. […] The cell suspension was seeded in a 96-well culture plate (cell plate) at a volume of 90 μl (per well hereafter) and incubated for 30 min in a 5% CO2 incubator at 37° C. The cells were treated with a GPCR ligand (10×, diluted in HBSS containing 5 mM HEPES (pH 7.4) and 0.01% (w/v) bovine serum albumin (BSA, fatty acid-free and protease-free grade; Serva)). After spinning the cell plates, conditioned media (80 μl) was transferred to an empty 96-well plate (conditioned media (CM) plate). […] Absorbance at 405 nm (Ab405) of the plates was measured, using a microplate reader (SpectraMax 340 PC384, Molecular Devices), before and after 1-h or 2-h incubation at room temperature. Ligand-induced AP-TGFα release was calculated as described previously. […]

In another experiment the test system is M3D-NMBR/ICL3. Nature of the experiment: NanoBiT-G-protein dissociation assay, M3D-NMBR/ICL3. The class given is cell-based, human. To be noted: 10 μM CNO; parental HEK293 cells. On the procedure: as §1
For experiment [2], the system named is DREADDs (M3D, M4D, M3D-Gs, M3D-GPR183/ICL3, M3D-GPR132/ICL3). Nature of the experiment: NanoBiT-G-protein dissociation assay, DREADD panel with titrated CNO. The note with it: all of the DREADDs, HEK293 cells, read-out: EC50 values of CNO for each primary-coupling G-protein. The class given is cell-based, human. How it is done:
as §1

Experiment [3] has as its target T2, M3D-GPR183/ICL3 (Homo sapiens, UniProt P20309, A239G/DEL264-389/DEL400-485/E393L/E394T/G397S/K260R/L396K/M398G/R261T/T262A/V391N/Y149C).
T2 construct: expressed in transfected cells; host or cells: parental HEK293 (NanoBiT-G-protein assay); ΔGq HEK293 (TGFα shedding assay)
T2 sequence (P20309 with tags, fused parts or gaps Y149C/A239G/K260R/R261T/T262A/DEL264-389/V391N/E393L/E394T/L396K/G397S/M398G/DEL400-485): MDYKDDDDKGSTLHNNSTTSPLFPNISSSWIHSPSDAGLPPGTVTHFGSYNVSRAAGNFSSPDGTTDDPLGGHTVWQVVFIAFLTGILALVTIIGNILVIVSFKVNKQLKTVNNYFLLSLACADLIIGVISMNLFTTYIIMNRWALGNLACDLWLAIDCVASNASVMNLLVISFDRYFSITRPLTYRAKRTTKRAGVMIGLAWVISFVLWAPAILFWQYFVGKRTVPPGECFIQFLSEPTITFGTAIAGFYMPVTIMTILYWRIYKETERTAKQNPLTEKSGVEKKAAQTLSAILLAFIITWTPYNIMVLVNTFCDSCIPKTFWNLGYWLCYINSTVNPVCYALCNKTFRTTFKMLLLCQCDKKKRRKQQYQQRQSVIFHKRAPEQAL
Nature of the experiment: TGFα shedding assay in ΔGq HEK293 cells, M3D-GPR183/ICL3. The class given is cell-based. To be noted: 10 μM CNO. On the procedure:
as §2

The subject of a further experiment is M3D-P2RY10/ICL3. Nature of the experiment: NanoBiT-G-protein dissociation assay, M3D-P2RY10/ICL3. The class given is cell-based, human. The note with it: 10 μM CNO; parental HEK293 cells. How it is done: as §1
Experiment [4] concerns the target T1, M3D-GPR132/ICL3. Nature of the experiment: NanoBiT-G-protein dissociation assay, M3D-GPR132/ICL3. It counts as cell-based. On the procedure:
(§3) Plasmid transfection was performed in a 6-well plate with a mixture of 100 ng Gα-Lg-encoding plasmid, 500 ng Sm-Gβ-encoding plasmid, 500 ng untagged Gγ2-encoding plasmid, 200 ng GPCR-encoding plasmid with or without 100 ng RIC8-encoding plasmid (per well, hereafter). Unless otherwise stated, the combination of following plasmid mixtures was used: Gαs-Lg, Sm-Gβ1, Gγ2 and RIC8B for NanoBiT-Gs; Gαi1-Lg, Sm-Gβ5 and Gγ2 for NanoBiT-Gi1; Gαi2-Lg, Sm-Gβ3 and Gγ2 for NanoBiT-Gi2; Gαi3-Lg, Sm-Gβ3 and Gγ2 for NanoBiT-Gi3; Gαo-Lg, Sm-Gβ1 and Gγ2 for NanoBiT-Go; Gαq-Lg, Sm-Gβ1, Gγ2 and RIC8A for NanoBiT-Gq; Gα12-Lg, Sm-Gβ1, Gγ2 and RIC8A for NanoBiT-G12; Gα13-Lg, Sm-Gβ1, Gγ2 and RIC8A for NanoBiT-G13. After 1-day culture, the transfected cells were harvested with 1 mL of 0.53 mM EDTA-containing Dulbecco's PBS (D-PBS), followed by addition of 2 mL the HEPES-containing HBSS. The cells were pelleted by centrifugation at 190 g for 5 min and resuspended in 2 mL of the 0.01% BSA- and 5 mM HEPES (pH 7.4)-containing HBSS (assay buffer). The cell suspension was seeded in a 96-well culture white plate (Greiner Bio-One) at a volume of 80 μl (per well hereafter) and loaded with 20 μl of 50 μM coelenterazine (Carbosynth) solution diluted in the assay buffer. After 2-h incubation with coelenterazine at room temperature, background luminescent signals were measured using a luminescent microplate reader (SpectraMax L, Molecular Devices). The inventors note that incubation time with coelenterazine can be shortened, but an effect of baseline drift should be taken into account (FIG. 14C-E). Test compound (6×, diluted in the assay buffer) was manually added to the cells (20 μl). Luminescent signals were measured 3-5 min after ligand addition and divided by the initial count. The ligand-induced signal ratio was normalized to that treated with vehicle. The consequent fold-change values were fitted to a four-parameter sigmoidal concentration-response described above.

In experiment [5] the target is T2, M3D-GPR183/ICL3. Nature of the experiment: NanoBiT-G-protein dissociation assay, M3D-GPR183/ICL3. The class given is cell-based. On the procedure:
as §3

The target of a further experiment is CNR1 (Homo sapiens, UniProt P21554). The note with it: HEK293 cells expressing CNR1.
Experiment [6] deals with RhoA. Nature of the experiment: Active RhoA pulldown assay in Cal27 cells. The class given is cell-based. The note with it: 10 μM CP-55940, 1 μM Ang II, 5 min. On the procedure:
(§4) HN12 cells and Cal27 cells were cultured to 50% confluency, and then serum starved overnight. To induce RhoA activation, cells were treated with 5 μM LPA, 1 μM Ang II, or 10 μM CP-55940 for 5 min. Active RhoA levels were measured using the RhoA Pull-Down Activation Assay Biochem Kit (bead pull-down format; Cytoskeleton) following the manufacturer instruction using a modified lysis buffer (50 mM Tris-HCl (pH 7.2), 500 mM NaCl, 10 mM MgCl2, 0.1% SDS, 1% NP-40). Briefly, after stimulation, samples were lysed and protein concentrations were quantified using DC Protein Assay (BioRad). Samples were adjusted to the same concentration with lysis buffer and 500 μg of each protein lysate was added to 15 μL GST-tagged Rhotekin-RBD bound to Sepharose beads. Samples were incubated while rocking at 4° C. for 1.5 h. Beads were then washed, eluted in Laemmli sample buffer, and analyzed by western blot using a mouse monoclonal anti-RhoA antibody (Cytoskeleton).

For experiment [7], the system named is RhoA. Nature of the experiment: Active RhoA pulldown assay in HN12 cells. The class given is cell-based. The note with it: 10 μM CP-55940, 1 μM Ang II, 5 min. On the procedure: as §4
The subject of experiment [8] is RhoA. Nature of the experiment: NanoBiT-RhoA assay in PC-3 cells (endogenously expressed GPCRs). It counts as cell-based, human. The note with it: thrombin 1000 U L^−1.
Protocol: (§5) The transfected cells were harvested, seeded in a white 96-well plate and loaded with 10 μM CTZ in the same manner described in the NanoBiT-G-protein dissociation assay. After measuring an initial luminescent signal, test compounds were added to the cells. Then, 3-5 min later, luminescent signals were measured and fold-change values were plotted as described above.
The subject of experiment [9] is RhoA. Nature of the experiment: NanoBiT-RhoA assay in MDA-MB-231 cells (endogenously expressed GPCRs). To be noted: thrombin 1000 U L^−1. The class given is cell-based, human.
Protocol: as §5
Where [10] appears, read: 10 μM CNO, parental HEK293 cells.
Where [11] appears, read: titrated CNO, NanoBiT-Gs, Go, Gq, G12 compared.

Sequence of CNR1 (P21554 whole entry): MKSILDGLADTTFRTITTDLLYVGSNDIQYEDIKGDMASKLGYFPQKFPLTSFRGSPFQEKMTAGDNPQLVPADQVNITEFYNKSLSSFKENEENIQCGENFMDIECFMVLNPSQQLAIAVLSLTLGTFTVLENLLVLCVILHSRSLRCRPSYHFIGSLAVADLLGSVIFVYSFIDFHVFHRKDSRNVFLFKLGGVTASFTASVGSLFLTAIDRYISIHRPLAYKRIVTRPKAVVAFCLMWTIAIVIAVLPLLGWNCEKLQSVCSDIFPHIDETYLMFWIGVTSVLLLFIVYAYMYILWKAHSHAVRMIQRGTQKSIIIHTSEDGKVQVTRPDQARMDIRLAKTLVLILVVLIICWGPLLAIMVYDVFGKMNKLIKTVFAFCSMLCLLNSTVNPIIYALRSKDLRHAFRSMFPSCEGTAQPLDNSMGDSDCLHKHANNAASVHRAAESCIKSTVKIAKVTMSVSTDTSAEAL
Protocol for CNR1: as §5

In the case of `C[N+]1([O-])CCN(C2=Nc3cc(Cl)ccc3Nc3ccccc32)CC1` [CNO, clozapine-N-oxide], the “G12 and Go coupling (NanoBiT-G12 / NanoBiT-Go screening)” value with M3D-LTB4R2/ICL3 was “induced both G12 and Go coupling with a higher Go dissociation signal”; with M3D-NMBR/ICL3 it was “coupled to G12 and not to Go”; with M3D-P2RY10/ICL3, “coupled to G12 and not to Go”; on M3D-GPR132/ICL3 [4] (setting [10]), “coupled to G12 and not to Go”; on M3D-GPR183/ICL3 [5] (setting [10]), “coupled to G12 and not to Go”. Further, the “G12 signaling (TGFα shedding response)” value at M3D-GPR132/ICL3 [1] and at M3D-GPR183/ICL3 [3] was “significant G12 signaling” each time. Also, in [2], the EC50 lay in the range of 0.1 to 1 µM. Further, the NanoBiT-G13 dissociation signal entry at M3D-GPR132/ICL3 [4] (10 μM CNO) and on M3D-GPR183/ICL3 [5] (10 μM CNO) was “lack of G13 activation” in each case. For the same compound, the G12 dissociation signal entry at M3D-GPR132/ICL3 [4] (setting [11]) and at M3D-GPR183/ICL3 [5] (setting [11]) was “robust G12 dissociation signal” throughout.

Consider `CCCCCCC(C)(C)c1ccc([C@@H]2C[C@H](O)CC[C@H]2CCCO)c(O)c1` [CP-55940], for which, at CNR1, the RhoA activation entry is “RhoA activation occurred”. Moreover, the “RhoA activation (GTP-bound RhoA pulldown)” value in the experiment on RhoA [6] and in the experiment with RhoA [7] was “induced activation of RhoA” each time.

On to “angiotensin II (DRVYIHPF; Angiotensin-2; UniProt P01019 25-32, looked up) [Ang II, endogenous ligand of AGTR1]”, for which the “RhoA activation (GTP-bound RhoA pulldown)” value in the experiment on RhoA [6] and with RhoA [7] was “induced activation of RhoA” in each case.

With thrombin, the RhoA activation result with RhoA [8] and in the experiment on RhoA [9] was “activated RhoA” in each case.

(Values after patent publication US12612442B2, “G12-specific designer receptor exclusively activated by designer drugs” (CELL NETWORKS GMBH, priority 2019, dated 2026).)
